Assay results taken from ChEMBL document CHEMBL5634074, “Azaindole derivatives as potential kinase inhibitors and their SARs elucidation” (Eur J Med Chem, 2023).

Columns and labels:
[1] = target: T1, Receptor-interacting serine/threonine-protein kinase 1 (Homo sapiens, UniProt Q13546); test: Inhibition of human RIPK1 by ADP-Glo assay
T1 sequence (Q13546 whole entry): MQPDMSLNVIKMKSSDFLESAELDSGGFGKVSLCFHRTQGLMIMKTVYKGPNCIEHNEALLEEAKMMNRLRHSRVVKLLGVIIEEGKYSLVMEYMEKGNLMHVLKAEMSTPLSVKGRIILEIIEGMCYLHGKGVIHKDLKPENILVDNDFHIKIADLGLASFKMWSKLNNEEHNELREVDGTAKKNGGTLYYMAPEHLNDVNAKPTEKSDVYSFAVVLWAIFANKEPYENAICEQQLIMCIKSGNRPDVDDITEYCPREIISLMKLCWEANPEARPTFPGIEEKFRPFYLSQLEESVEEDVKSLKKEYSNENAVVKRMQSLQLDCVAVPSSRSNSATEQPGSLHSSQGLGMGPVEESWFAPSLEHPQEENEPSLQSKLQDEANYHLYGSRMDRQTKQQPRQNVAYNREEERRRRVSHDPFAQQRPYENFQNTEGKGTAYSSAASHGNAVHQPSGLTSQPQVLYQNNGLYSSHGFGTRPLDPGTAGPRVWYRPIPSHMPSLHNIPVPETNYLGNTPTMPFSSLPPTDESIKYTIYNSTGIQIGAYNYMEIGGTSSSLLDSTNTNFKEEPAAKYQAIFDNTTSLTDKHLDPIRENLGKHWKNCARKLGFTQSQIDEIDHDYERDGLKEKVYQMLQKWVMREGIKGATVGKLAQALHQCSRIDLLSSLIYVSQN

[2] = target: Receptor-interacting serine/threonine-protein kinase 3 (Homo sapiens, UniProt Q9Y572); test: Inhibition of RIPK3 (unknown origin)
[3] = target: Phosphatidylinositol 4,5-bisphosphate 3-kinase catalytic subunit gamma isoform (Homo sapiens, UniProt P48736); test: Inhibition of PI3Kgamma (unknown origin)
MDA-MB-231 = format: functional, cell-based; conditions: Homo sapiens, MDA-MB-231, 48 h
[4] = target: Phosphatidylinositol 4,5-bisphosphate 3-kinase catalytic subunit beta isoform (Homo sapiens, UniProt P42338); test: Inhibition of PI3Kbeta (unknown origin)
MCF7 = test: Antiproliferative activity against human MCF7 cells assessed as reduction in cell viability measured after 48 hrs by MTT assay; format: functional, cell-based; conditions: MCF7, 48 h
[5] = target: T2, Phosphatidylinositol 4,5-bisphosphate 3-kinase catalytic subunit delta isoform (Homo sapiens, UniProt O00329); test: Inhibition of PI3Kdelta (unknown origin)
T2 sequence (O00329 whole entry): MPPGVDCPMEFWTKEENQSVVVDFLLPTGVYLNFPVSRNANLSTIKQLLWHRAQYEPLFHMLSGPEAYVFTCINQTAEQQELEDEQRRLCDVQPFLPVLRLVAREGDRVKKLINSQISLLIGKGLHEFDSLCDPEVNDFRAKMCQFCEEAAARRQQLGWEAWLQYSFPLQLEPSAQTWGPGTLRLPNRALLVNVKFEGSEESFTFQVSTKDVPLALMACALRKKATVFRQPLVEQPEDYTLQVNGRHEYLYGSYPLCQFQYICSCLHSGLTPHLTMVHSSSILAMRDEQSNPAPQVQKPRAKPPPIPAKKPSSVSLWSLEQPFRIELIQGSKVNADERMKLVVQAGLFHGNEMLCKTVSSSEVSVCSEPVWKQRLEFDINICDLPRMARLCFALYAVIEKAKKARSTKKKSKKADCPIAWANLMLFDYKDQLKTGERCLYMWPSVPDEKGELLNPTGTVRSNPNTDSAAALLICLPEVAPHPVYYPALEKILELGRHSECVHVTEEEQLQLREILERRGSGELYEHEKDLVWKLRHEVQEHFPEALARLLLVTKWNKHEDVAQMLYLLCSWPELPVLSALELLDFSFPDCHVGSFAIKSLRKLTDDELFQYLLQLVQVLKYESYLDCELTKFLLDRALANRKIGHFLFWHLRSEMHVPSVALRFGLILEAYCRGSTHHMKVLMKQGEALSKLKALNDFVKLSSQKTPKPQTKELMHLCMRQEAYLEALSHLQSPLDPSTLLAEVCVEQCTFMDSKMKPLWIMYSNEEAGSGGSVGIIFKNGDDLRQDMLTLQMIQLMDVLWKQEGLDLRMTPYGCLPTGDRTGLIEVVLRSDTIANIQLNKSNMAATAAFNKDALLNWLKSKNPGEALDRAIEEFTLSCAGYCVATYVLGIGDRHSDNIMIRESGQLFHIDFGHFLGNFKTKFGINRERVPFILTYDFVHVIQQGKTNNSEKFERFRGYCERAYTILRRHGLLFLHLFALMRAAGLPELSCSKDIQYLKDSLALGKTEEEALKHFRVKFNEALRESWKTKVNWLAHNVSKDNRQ

[6] = target: Phosphatidylinositol 4,5-bisphosphate 3-kinase catalytic subunit alpha isoform (Homo sapiens, UniProt P42336); test: Inhibition of PI3Kalpha (unknown origin)
[7] = target: Proto-oncogene tyrosine-protein kinase receptor Ret (Homo sapiens, UniProt P07949); test: Inhibition of RET (unknown origin) by DiscoverX KINOMEscan assay
[8] = target: [Pyruvate dehydrogenase (acetyl-transferring)] kinase isozyme 1, mitochondrial (Homo sapiens, UniProt Q15118); test: Inhibition of PDK1 (unknown origin) incubated for 30 mins followed by substrate addition measured after 60 mins in presence of ATP by ADP-Glo luminescent assay
PSN1 = format: functional, cell-based; conditions: Homo sapiens, PSN1, 72 h
[9] = Efflux ratio of apparent permeability across basolateral to apical side over apical to basolateral side in dog MDCK-MDR1 cells at 5 uM incubated for 90 mins by LC-MS/MS analysis; format: ADME, cell-based, Canis lupus familiaris
[10] = target: High affinity nerve growth factor receptor (Homo sapiens, UniProt P04629); test: Inhibition of TRKA (unknown origin) by Ambit kinase assay
[11] = target: T1, Receptor-interacting serine/threonine-protein kinase 1; test: Inhibition of RIPK1 (unknown origin)
KG-1 = test: cells; conditions: Homo sapiens, KG-1, 72 h
Dengue virus = test: Antiviral activity against DENV infected in human Huh-7 cells assessed as reduction in viral growth incubated for 72 hrs by flow cytometry; format: functional, organism-based; conditions: Huh-7, 72 h
[12] = target: Voltage-gated inwardly rectifying potassium channel KCNH2 (Homo sapiens, UniProt Q12809); test: Inhibition of hERG (unknown origin); format: toxicity
Chain of Voltage-gated inwardly rectifying potassium channel KCNH2 (Q12809 whole entry): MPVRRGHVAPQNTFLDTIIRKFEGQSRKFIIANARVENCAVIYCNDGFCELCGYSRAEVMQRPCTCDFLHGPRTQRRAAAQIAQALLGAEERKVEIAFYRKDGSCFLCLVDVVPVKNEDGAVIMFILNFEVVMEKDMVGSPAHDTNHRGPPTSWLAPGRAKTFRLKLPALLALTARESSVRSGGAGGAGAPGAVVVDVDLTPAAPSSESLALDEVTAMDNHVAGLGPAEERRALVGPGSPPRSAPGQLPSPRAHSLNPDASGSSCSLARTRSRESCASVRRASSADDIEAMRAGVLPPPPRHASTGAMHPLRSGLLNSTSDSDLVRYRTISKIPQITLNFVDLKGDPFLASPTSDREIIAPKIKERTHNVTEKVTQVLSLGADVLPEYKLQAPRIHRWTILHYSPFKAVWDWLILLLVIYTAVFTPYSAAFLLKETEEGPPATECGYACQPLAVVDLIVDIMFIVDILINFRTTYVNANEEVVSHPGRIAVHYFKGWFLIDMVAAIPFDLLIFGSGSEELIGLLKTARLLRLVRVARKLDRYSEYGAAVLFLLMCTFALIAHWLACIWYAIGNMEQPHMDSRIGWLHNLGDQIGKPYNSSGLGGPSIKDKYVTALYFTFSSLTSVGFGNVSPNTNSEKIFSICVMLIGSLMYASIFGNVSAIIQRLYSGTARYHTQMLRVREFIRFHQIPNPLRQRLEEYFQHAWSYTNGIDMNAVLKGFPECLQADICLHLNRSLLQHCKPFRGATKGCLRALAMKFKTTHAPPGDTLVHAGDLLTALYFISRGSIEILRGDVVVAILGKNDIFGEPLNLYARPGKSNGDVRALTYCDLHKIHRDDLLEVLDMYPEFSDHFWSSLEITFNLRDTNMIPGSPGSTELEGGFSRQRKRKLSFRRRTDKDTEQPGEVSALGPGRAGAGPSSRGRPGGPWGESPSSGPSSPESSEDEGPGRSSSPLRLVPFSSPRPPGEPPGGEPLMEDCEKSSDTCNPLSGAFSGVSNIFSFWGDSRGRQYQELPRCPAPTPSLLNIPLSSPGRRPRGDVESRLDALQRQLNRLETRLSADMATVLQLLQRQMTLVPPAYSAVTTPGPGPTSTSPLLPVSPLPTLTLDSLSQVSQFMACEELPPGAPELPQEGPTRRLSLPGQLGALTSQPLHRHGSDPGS

Chain of [Pyruvate dehydrogenase (acetyl-transferring)] kinase isozyme 1, mitochondrial (Q15118 whole entry): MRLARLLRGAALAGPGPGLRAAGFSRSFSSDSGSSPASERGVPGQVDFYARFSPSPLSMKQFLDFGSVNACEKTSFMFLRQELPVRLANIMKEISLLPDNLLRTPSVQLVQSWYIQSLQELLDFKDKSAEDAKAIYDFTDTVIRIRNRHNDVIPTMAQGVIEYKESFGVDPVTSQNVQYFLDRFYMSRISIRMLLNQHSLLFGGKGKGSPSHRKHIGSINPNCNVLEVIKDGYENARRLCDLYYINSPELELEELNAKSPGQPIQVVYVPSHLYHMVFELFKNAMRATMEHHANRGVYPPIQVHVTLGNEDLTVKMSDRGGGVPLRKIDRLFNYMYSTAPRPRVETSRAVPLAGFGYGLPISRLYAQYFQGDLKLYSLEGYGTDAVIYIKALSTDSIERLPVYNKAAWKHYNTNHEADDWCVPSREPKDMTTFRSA
Chain of Phosphatidylinositol 4,5-bisphosphate 3-kinase catalytic subunit gamma isoform (P48736 whole entry, canonical isoform): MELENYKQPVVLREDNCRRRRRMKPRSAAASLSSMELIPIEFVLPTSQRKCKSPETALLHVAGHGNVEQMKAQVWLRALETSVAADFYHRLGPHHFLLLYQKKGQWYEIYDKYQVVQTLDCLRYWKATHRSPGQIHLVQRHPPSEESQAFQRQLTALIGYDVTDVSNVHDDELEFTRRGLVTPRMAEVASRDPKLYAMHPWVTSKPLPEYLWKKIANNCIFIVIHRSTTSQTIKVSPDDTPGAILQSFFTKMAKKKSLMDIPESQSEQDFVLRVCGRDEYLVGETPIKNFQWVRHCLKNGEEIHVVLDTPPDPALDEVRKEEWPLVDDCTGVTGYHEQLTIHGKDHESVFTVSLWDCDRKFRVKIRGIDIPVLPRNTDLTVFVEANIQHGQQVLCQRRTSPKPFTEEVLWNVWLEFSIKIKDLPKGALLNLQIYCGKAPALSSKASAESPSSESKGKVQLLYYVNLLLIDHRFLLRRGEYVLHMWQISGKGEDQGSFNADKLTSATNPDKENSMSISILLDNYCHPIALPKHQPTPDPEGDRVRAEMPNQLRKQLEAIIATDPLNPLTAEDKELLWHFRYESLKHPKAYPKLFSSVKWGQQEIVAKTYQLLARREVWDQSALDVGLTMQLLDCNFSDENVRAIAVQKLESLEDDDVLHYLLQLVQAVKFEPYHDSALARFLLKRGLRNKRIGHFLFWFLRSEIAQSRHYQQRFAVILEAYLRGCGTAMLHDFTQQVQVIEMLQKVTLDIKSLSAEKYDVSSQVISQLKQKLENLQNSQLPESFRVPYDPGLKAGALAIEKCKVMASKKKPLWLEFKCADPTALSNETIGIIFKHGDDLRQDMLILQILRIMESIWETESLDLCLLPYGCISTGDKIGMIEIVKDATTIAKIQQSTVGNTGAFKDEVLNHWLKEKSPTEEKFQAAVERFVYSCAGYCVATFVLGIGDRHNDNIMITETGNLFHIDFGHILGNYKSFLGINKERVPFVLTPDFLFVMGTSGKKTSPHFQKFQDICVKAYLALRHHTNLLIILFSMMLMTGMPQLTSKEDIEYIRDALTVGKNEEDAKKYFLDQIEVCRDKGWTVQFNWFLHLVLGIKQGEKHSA
Chain of Phosphatidylinositol 4,5-bisphosphate 3-kinase catalytic subunit alpha isoform (P42336 whole entry, canonical isoform): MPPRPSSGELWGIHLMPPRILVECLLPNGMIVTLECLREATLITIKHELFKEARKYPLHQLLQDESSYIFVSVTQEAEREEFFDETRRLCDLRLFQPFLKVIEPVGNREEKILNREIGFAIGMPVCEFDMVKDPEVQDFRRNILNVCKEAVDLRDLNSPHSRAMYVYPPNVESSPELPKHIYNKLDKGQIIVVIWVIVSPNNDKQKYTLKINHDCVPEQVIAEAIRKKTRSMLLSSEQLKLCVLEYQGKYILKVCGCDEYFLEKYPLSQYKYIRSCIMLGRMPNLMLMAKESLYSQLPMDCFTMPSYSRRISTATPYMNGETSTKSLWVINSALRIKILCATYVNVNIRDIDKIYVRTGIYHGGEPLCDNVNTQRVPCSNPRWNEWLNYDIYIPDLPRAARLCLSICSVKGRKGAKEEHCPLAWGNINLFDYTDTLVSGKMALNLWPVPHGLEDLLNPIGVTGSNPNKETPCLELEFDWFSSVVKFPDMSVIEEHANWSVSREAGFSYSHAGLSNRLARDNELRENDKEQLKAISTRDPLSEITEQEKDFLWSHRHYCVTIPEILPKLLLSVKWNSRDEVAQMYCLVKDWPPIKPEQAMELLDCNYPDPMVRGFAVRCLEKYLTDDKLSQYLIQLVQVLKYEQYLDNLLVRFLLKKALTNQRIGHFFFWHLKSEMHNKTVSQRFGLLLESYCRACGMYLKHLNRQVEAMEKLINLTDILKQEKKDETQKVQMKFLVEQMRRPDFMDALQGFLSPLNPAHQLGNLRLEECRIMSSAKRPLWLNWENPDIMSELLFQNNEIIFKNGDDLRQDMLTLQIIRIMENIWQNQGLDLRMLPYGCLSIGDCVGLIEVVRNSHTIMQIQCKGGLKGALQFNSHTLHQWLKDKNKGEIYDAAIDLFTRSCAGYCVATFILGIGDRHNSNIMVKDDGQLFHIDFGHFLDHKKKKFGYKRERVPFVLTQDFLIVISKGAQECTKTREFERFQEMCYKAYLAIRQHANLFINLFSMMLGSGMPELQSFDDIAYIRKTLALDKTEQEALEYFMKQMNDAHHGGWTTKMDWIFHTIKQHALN
Chain of Phosphatidylinositol 4,5-bisphosphate 3-kinase catalytic subunit beta isoform (P42338 whole entry, canonical isoform): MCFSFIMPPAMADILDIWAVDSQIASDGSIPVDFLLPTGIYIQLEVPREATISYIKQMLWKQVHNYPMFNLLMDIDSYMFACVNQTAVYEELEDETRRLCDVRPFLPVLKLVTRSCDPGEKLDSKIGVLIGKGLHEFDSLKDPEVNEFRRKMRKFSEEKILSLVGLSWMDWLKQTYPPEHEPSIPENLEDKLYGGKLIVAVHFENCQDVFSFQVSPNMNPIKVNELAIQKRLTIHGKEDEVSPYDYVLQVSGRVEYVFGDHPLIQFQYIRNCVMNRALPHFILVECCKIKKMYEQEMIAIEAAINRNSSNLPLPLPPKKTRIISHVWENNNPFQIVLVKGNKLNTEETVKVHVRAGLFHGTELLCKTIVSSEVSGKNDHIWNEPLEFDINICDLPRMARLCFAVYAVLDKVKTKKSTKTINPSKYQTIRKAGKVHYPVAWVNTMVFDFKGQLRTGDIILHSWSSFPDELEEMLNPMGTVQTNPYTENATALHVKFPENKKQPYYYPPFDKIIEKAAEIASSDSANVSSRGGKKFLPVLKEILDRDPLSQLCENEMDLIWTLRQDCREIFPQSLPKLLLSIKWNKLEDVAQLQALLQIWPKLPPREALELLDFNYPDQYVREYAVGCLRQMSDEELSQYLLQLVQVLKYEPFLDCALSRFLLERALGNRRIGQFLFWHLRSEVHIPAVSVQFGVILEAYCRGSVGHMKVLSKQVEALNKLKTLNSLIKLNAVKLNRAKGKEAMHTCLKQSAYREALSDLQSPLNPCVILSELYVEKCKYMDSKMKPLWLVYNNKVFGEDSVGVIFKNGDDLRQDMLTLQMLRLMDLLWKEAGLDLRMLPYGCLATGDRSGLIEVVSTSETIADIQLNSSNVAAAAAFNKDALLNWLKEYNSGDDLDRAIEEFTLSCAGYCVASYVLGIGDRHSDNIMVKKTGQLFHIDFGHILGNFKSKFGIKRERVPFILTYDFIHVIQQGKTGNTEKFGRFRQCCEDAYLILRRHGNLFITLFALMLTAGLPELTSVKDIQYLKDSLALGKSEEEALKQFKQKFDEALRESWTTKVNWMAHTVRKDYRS

Structure (SMILES): O=C(c1ccc(-c2cc3cccnc3[nH]2)cc1)N1CCOCC1
- IC50 [1]: 80 nM
- IC50 [2]: > 20000 nM

Structure (SMILES): O=S(=O)(Nc1cc(-c2cnc3[nH]cc(-c4cnn(CCN5CCOCC5)c4)c3c2)cnc1Cl)c1ccccc1
- IC50 [3]: 0.3 nM
- IC50 (MDA-MB-231): 1200 nM
- IC50 [4]: 0.3 nM
- IC50 (MCF7): 6000 nM
- IC50 [5]: 0.3 nM
- IC50 [6]: 0.3 nM

Structure (SMILES): CN1CCN(Cc2ccc(NC(=O)c3cccc(/N=N/c4cnc5[nH]ccc5c4)c3)cc2C(F)(F)F)CC1
- IC50 [7]: 50 nM

Structure (SMILES): Cn1cc(-c2nc(N)nnc2-c2c[nH]c3ccc(Br)cc23)c2cc(Br)cnc21
- IC50 [8]: 30 nM
- IC50 (PSN1): 3300 nM

Structure (SMILES): Cc1cc(-n2cc(C(=O)N3CCOCC3)c3ccc(N[C@@H](C)c4ccc(F)cn4)nc32)[nH]n1
- efflux ratio at 1.5 h, 5 µM [9]: 18
- IC50 [10]: 2.5 nM

Structure (SMILES): Oc1ccc(-c2cnc3[nH]ccc3c2)cc1
- IC50 [11]: 1470 nM

Structure (SMILES): NC(=O)c1cc(Cl)c2c(Cl)c(C#CC3CC3)n(C3CCCNC3)c2n1 (centres undefined)
- IC50 (KG-1): < 100 nM

Structure (SMILES): O=S(=O)(Nc1cc(-c2cnc3[nH]cc(-c4ccc(N5CCOCC5)nc4)c3c2)cnc1Cl)c1ccccc1
- IC50 [3]: 0.3 nM
- IC50 (MDA-MB-231): 450 nM
- IC50 [4]: 0.3 nM
- IC50 (MCF7): 1190 nM
- IC50 [5]: 0.3 nM
- IC50 [6]: 0.3 nM

Structure (SMILES): Cn1cc(-c2nc(N)nnc2-c2c[nH]c3ccc(F)cc23)c2cc(Br)cnc21
- IC50 [8]: 30 nM
- IC50 (PSN1): 3300 nM

Structure (SMILES): COc1ccc(-c2cnc3[nH]cc(C#Cc4cccnc4)c3c2)cc1OC
- EC50 (Dengue virus): 720 nM

Structure (SMILES): NC(=O)c1ccc(-c2cc3cccnc3[nH]2)cc1
- IC50 [11]: 90 nM

Structure (SMILES): Cc1cc(-n2cc(C(=O)N3CCO[C@@H](C)C3)c3ccc(OC(C)c4ccc(F)cn4)nc32)n[nH]1 (some centres undefined)
- efflux ratio at 1.5 h, 5 µM [9]: 1

Structure (SMILES): Cn1cc(-c2nnc(N)nc2-c2c[nH]c3ccc(F)cc23)c2cc(Br)cnc21
- IC50 [8]: 30 nM
- IC50 (PSN1): 3300 nM

Structure (SMILES): NC(=O)c1cc(Cl)c2c(Cl)c(C3CC3)n(C3CCCNC3)c2n1 (centres undefined)
- IC50 [12]: 1000 nM
- IC50 (KG-1): < 100 nM

Structure (SMILES): NC(=O)c1cc(Cl)c2c(Cl)c(I)n(C3CCCNC3)c2n1 (centres undefined)
- IC50 [12]: 1000 nM
- IC50 (KG-1): < 100 nM

Structure (SMILES): Cn1cc(-c2nnc(N)nc2-c2c[nH]c3ccc(Br)cc23)c2cc(Br)cnc21
- IC50 [8]: 30 nM
- IC50 (PSN1): 3300 nM
